One series deals with T1, Kv7.2/7.3 (KCNQ2/3) (Homo sapiens, UniProt O43525+O43526).
T1 construct: expressed in transfected cells; host or cells: CHO
Kind of series: CHO-Kv7.2/7.3 (KCNQ2/3) 86Rb efflux assay. It is filed as cell-based. The procedure:
Compounds were tested at concentrations from 0.001 μM to 30 μM to generate 10-point concentration-response curve (CRC) (n=2). Retigabine and ML213 were included as control activators of Kv7.2/7.3 (KCNQ2/3). Data was normalized to ^86Rb flux elicited by application of extracellular buffer containing 70 mM KCl.
Data were fit with “maximum activation” set at 100% of 70 mM KCl control stimulus.

Series [1] relates to VU0463271-induced phenotype (KCC2 inhibition) in zebrafish larvae. The experiment in a line: animal or person. The settings on record: for suppression score dose response compared with other compounds as suppressor of the hyperexcitability phenotype: zebrafish, FIG. 8 / FIG. 10; for EC50: Danio rerio, read-out: in vivo EC50; for peak activity: concentration of peak effect, doses 2.5-320 uM, suppression of KCC2-inhibited phenotype in zebrafish. The procedure: To quantify the ability of the same drugs to reverse (or “rescue”) the phenotype caused by either 2.5 μM VU0463271 or 5 μM VU0240551, a rescue score between 0 (no rescue) and 1 (maximal theoretical rescue) was calculated (FIG. 2C). A rescue score incorporates and quantifies the degree of phenotypic reversal and the level of sedation in each concentration tested (see Materials and Methods below).
A diverse collection of 37,000 uncharacterized small molecules were used in a suppressor screen against either 2.5 μM VU0463271 (27,000 compounds) or 5 μM VU0240551 (10,000 compounds), along with 3,700 control wells treated with DMSO alone and 3,700 control wells treated with the KCC2 inhibitor. Each well of a 96-well plate containing at least about 8 zebrafish larvae was treated with a library compound or DMSO followed by treatment with the KCC2 inhibitor. Behavioral profiles pre- and post-treatment with the KCC2 inhibitor were evaluated using the behavioral assay battery described herein, and a detailed quantitative readout of about 15,000 time points was generated for each well. These behavioral profiles were used to calculate a screening score for each library compound, which incorporates and quantifies the rescue score and sedation index (see Materials and Methods).
In some cases, small molecules that alter the KCC2 inhibition phenotype may reverse the behavioral phenotype back to the normal, but could also elicit a new undesired phenotype, which is different from a normal behavior. To discriminate between these possibilities, vector algebra was used to compare each behavioral profile to the behavioral profile of DMSO-treated larvae and defined a value for the phenotypic distance from DMSO. The screen score of each compound was then plotted against its averaged phenotypic distance from DMSO (FIG. 3A) and MI (FIG. 3B) to filter out compounds that elicit a profile that is very different from the control one and compounds that reduce overall activity, respectively.
The reproducibility of the effects and the active concentration ranges of the 30 hits selected, as described above, were determined. Their rescue efficacies were retested in at least six concentrations and their rescue scores were also recalculated.
TT0023831 and six analogs were tested at a range of doses from 2.5-320 uM in a behavioral assay designed to assess the ability of compounds to suppress the effects of KCC2 inhibition. The graphs of FIG. 11 indicate the degree of suppression of the KCC2-inhibited phenotype, where a score of 1 represents complete restoration of KCC2-treated zebrafish to normal. […] Table 4 summarizes the estimated EC50 values and peak effect values for each compound.
A large number of fertilized zebrafish eggs (up to 20,000 embryos per day) were collected from group matings of wild type Ekkwill/Singapore zebrafish. Embryos were raised in hatching jars at 28° C. on a 14/10 hour light/dark cycle until 3 days post fertilization (dpf), then transferred to an incubator under the same conditions until 7 dpf. Groups of eight larvae (7 dpf) were distributed into the wells of a clear flat bottom square well 96-well plates filled with E3 medium (300 μl). Larvae were then incubated at 25° C. on the bench top for one-hour chemical treatment and subsequent experiments.
A library containing 37,000 uncharacterized small molecules was purchased from Life Chemicals and dissolved in DMSO at a stock concentration of 10 mM.

The test system of series [2] is mouse maximal electroshock (MES) model. The experiment in a line: Mouse maximal electroshock (MES) model. It is filed as in vivo. The settings on record: animals protected from seizures / number tested. On the procedure:
(§1) TT0023831 and TT0042607 were tested in mammalian models of epilepsy. The two compounds were tested in the mouse 6 Hz 44 mA model and the mouse maximal electroshock (MES) model. A range of doses was examined, and results were reported as the number of animals protected from seizures out of the number tested (Table 5).
(The maximal electroshock test induces tonic seizures with an electrical stimulus.)

For series [3], the system named is cultured rat hippocampal neurons. The experiment in a line: Gramicidin perforated patch clamp in cultured hippocampal neurons. Type of series: cell-based. On the procedure:
Referring to FIG. 9, representative IV curves were generated (current-voltage curves) to characterise the intrinsic excitability of TT0023831 and TT0042607 in gramicidin perforated patch clamp studies, and to investigate whether the effects of the three hit compounds identified in the above-described suppressor screens translate to rodent models. The effects of these compounds were evaluated in cultured rat hippocampal neurons using the gramicidin perforated patch technique. The GABAA agonist, muscimol (1 μM), was used to measure EGABA values under basal conditions (FIG. 9). Perfusion of 30 μM TT0011235 potentiated GABAA-mediated currents, both muscimol-activated and endogenous post-synaptic potentials, and shifted the EGABA values (FIG. 9 and Appendix B). […] Treatment with 30 μM TT0042607 slowed the upstroke and repolarization, reduced the input resistant and thus, and reduced the number of open channels.
(In general: The patch-clamp technique gives a direct electrical read-out from membranes.)

The next series deals with mouse 6 Hz 44 mA model. The experiment in a line: Mouse 6 Hz 44 mA model of epilepsy. Type of series: in vivo. Particulars: animals protected from seizures / number tested. On the procedure:
as §1

Series [4] relates to PTZ-induced behavior in zebrafish larvae. The experiment in a line: Suppression of PTZ-induced behavior in zebrafish larvae. It is filed as in vivo. On the procedure: Differences between behavioral profiles of larval zebrafish treated with KCC2 inhibitors and larval zebrafish treated with PTZ were investigated by evaluating the ability of traditional anti-seizure drugs to reverse their effects. Five drugs in at least six concentrations (by allocating 12 wells per concentration) were tested. These drugs included a benzodiazepine anxiolytic (diazepam), two AEDs that increase GABA levels in the synapse (tiagabine and valproate), a sodium channel blocker (phenytoin) and a synthetic neurosteroid GABAA positive allosteric modulator (PAM, ganaxolone).

Structures are written as SMILES. Read-outs that look alike come from different tables or passages of the source.

In the case of `CCCOc1nn(CCC)cc1C(=O)Nc1ccc(C(F)(F)F)c(F)c1` [TT0000367, N-(3-fluoro-4-(trifluoromethyl)phen-yl)-3-propoxy-1-propyl-1H-pyrazole-4-carboxamide], the EC50 (usually the concentration giving half of the maximal effect) at Kv7.2/7.3 (KCNQ2/3) (10-point CRC 0.001-30 μM, n=2, fit with maximum activation set at 100% of 70 mM KCl control, read-out: EC50) is over 30 µM; on Kv7.2/7.3 (KCNQ2/3) (Table 7, first line of values, read-out: EC50 (μM, raw)), over 30 µM; at Kv7.2/7.3 (KCNQ2/3) (Table 7, second, unlabelled line of values, read-out: EC50 (μM, raw)), over 30 µM. In addition, the Emax on Kv7.2/7.3 (KCNQ2/3) (86Rb flux normalized to 70 mM KCl control, read-out: Max Flux %) came out at 21%. The “Conc μM @ Max Flux” value at Kv7.2/7.3 (KCNQ2/3) (concentration at which maximal 86Rb flux was seen) was 0.01 µM. The “Fitted Max %” value at Kv7.2/7.3 (KCNQ2/3) (fit, maximum activation set at 100% of 70 mM KCl control stimulus) is given as 100%. In addition, the “suppression score dose response compared with other compounds as suppressor of the hyperexcitability phenotype” value in series [1] is recorded as “outperform the other compounds tested”.

Consider `COc1cc(C)c(Br)cc1S(=O)(=O)NCCN1CCOCC1` [TT0027052, 5-bromo-2-methoxy-4-methyl-N-(2-morpholinoethyl)benzene-sulfonamide], for which, in series [1], the half-maximal effective concentration (EC50) stood at 5 µM and the peak activity was determined as 20 µM.

In the case of `COc1cc(C)c(C)cc1S(=O)(=O)NCCN1CCOCC1` [TT0038280, 2-methoxy-4,5-dimethyl-N-(2-morpholinoethyl)benzene-sulfonamide], in series [1], the half-maximal effective concentration (EC50) came to 40 µM and the peak activity is 80 µM.

On to `CCCOc1nn(CCC)cc1C(=O)Nc1ccc(C(F)(F)F)cc1` [TT0042607, 3-propoxy-1-propyl-N-(4-(trifluoromethyl)phen-yl)-1H-pyrazole-4-carboxamide], for which, in series [2] (10 mg/kg), the “Rescued (MES model)” value is 0/4. Further, the “Rescued (MES model)” value in series [2] (30 mg/kg) is 0/4. For the same molecule, the “Rescued (MES model)” value in series [2] (100 mg/kg) is 2/4. For the same molecule, in series [3], the “effect on GABAA-mediated currents” value is “neither TT0023831 nor TT0042607 appeared to have an effect”, the “firing rates of the cultured neurons” value is “reduced the firing rates” and the spike initiation result was “delayed spike initiation”. Besides, in series [3] (30 μM), the input resistant entry was “reduced”; the “number of open channels (open at rest)” value is reported as “reduced”; the upstroke and repolarization entry is reported as “slowed”. Moreover, in the series with mouse 6 Hz 44 mA model (10 mg/kg), the “Rescued (6 Hz model)” value is on record as 0/4. Besides, the “Rescued (6 Hz model)” value in the series with mouse 6 Hz 44 mA model (30 mg/kg) is recorded as 0/4. The “Rescued (6 Hz model)” value with mouse 6 Hz 44 mA model (100 mg/kg) was 1/4. The “effect on the overall MI” value in series [1] (sub-micromolar or higher concentrations (tested 0.08-2.5 μM)) is “no effect”. The “rescue of VU0463271-induced behaviors” value in series [1] (tested at 0.08-2.5 μM, already at sub-micromolar concentrations) is recorded as “rescued”. In addition, in series [1], the “suppression score dose response compared with other compounds as suppressor of the hyperexcitability phenotype” value was “outperform both tiagabine and valproic acid”. In series [4] (pre-treatment with 6 concentrations, then 5 mM PTZ), the “suppression of PTZ-induced hyperactivity in response to the different stimuli” value is “attenuated”.

On to `CCOc1ccc(Br)cc1S(=O)(=O)NCCN1CCOCC1` [TT0048134, 5-bromo-2-ethoxy-N-(2-morpholinoethyl)benzene-sulfonamide], for which, in series [1], the EC50 worked out at 15 µM and the peak activity came to 20 µM.

Regarding `COc1cc(C)c(C(C)C)cc1S(=O)(=O)NCC1CCCO1` (stereo not shown) [TT0048274, 5-isopropyl-2-methoxy-4-methyl-N-((tetrahydrofuran-2-yl)methyl)benzenesulfonamide], in series [1], the EC50 is over 160 µM and the peak activity is over 160 µM.

Take `COc1ccc(C(C)C)cc1S(=O)(=O)NCCN1CCOCC1` [TT0048803, 5-isopropyl-2-methoxy-N-(2-morpholinoethyl)benzene-sulfonamide]: in series [1], the EC50 was under 5 µM and the peak activity worked out at 20 µM.

Turning to `COc1cc(S(=O)(=O)NCCN2CCOCC2)c(OC)cc1C` [TT0048874, 2,5-dimethoxy-4-methyl-N-(2-morpholinoethyl)benzene-sulfonamide], in series [1], the 50% effective concentration (EC50) was 40 µM and the peak activity was found to be 160 µM.

`CN1C(=O)CN=C(c2ccccc2)c2cc(Cl)ccc21` [diazepam]: the “prevention of the formation of the PTZ-induced behavior” value (from here on “prevention”) in series [4] (zebrafish, in vivo) is on record as “almost completely prevented”.

On to `CC(=O)[C@H]1CC[C@H]2[C@@H]3CC[C@H]4C[C@](C)(O)CC[C@]4(C)[C@H]3CC[C@]12C` [ganaxolone], for which, in series [4] (pre-treatment, non-sedative concentration 0.31 μM, data not shown), the “prevention” value is “almost completely prevented”.

As to `O=C1NC(=O)C(c2ccccc2)(c2ccccc2)N1` [phenytoin], in series [4] (pre-treatment, 160 μM, data not shown), the “prevention” value is reported as “almost no effect”.

`Cc1ccsc1C(=CCCN1CCC[C@@H](C(=O)O)C1)c1sccc1C` [tiagabine, reference compound]: the “rescue of the behavioral profile induced by KCC2 inhibition (rescue score 0-1)” value in series [1] (phenotype caused by 2.5 μM VU0463271 or 5 μM VU0240551, at least six concentrations) was “most effective”. Moreover, the “prevention” value in series [4] (pre-treatment, non-sedative concentration 40 μM, data not shown) is given as “almost completely prevented”.

These data come from patent publication US20180161310A1, “COMPOUNDS AND METHODS FOR THE TREATMENT OF NEUROLOGICAL DISORDERS” (Teleos Therapeutics, LLC, priority 2016, published 2018).
